Measurements taken from ChEMBL document CHEMBL1134839, “Methylene-gem-difluorocyclopropane analogues of nucleosides: synthesis, cyclopropene-methylenecyclopropane rearrangement, and biological activity” (2001).

Columns and labels:
[1] = The compound was tested for antitumor activity against normal cells (fibroblast); assay type: functional, Homo sapiens
[2] = system: MC-38; assay: The compound was tested for antitumor activity against mouse tumor C38 cells; assay type: functional
[3] = The compound was tested for antitumor activity against human colon tumor H116 cells; assay type: functional
[4] = The compound was tested for antitumor activity against L1210 cells; assay type: functional, Mus musculus
[5] = The compound was tested for antitumor activity against mouse tumor M17/Adr cells; assay type: functional
[6] = The compound was tested for antitumor activity against human tumor H15 cells; assay type: functional

| SMILES | Activity [1] | Activity [2] | Activity [3] | Activity [4] | Activity [5] | Activity [6] |
| --- | --- | --- | --- | --- | --- | --- |
| Nc1ncnc2c1ncn2/C=C1/C(CO)C1(F)F (configuration not stated) | 500 | 580 | 550 | 660 | 590 | 550 |
| Nc1ncnc2c1ncn2/C=C1\C(CO)C1(F)F (configuration not stated) | 130 | 470 | 200 | 420 | 370 | 300 |
| Nc1ncnc2c1ncn2/C=C1/CC1CO (configuration not stated) | 130 | 600 | 160 | 570 | 460 |  |
